The results in this text go back to US10314841B2, “Substituted pyrazoles as IRAK inhibitors” (Merck Patent GmbH, priority 2014, dated 2019).

Experiment [1] has as its system TLR7 induced IL-6 secretion in human PBMC's. Briefly: TLR7 induced IL-6 in human PBMC's. It counts as cell-based. Particulars: read-out: TLR7 induced IL-6 secretion in hPBMC's (IC50). As for the experimental part: TLR7 Induced IL-6 in Human PBMC's Human PBMC assay was used as one of the functional assays to monitor the activity of IRAK1 and IRAK4 small molecule inhibitors on TLR7 induced IL-6 secretion in human mononuclear cells (PBMC's). Human PBMCs were prepared from buffy coats (whole blood enriched with leukocytes and platelets) obtained from healthy volunteers used either fresh or frozen are plated in assay media (RPMI+2% P/S/L-glu+10% HI-FBS) and pre-treated with compounds in DMSO/media (range of concentrations from 25 uM to 0.4 nM) or controls (0.25% DMSO) for 30 minutes at 37° C. in assay media. Following pre-treatment with IRAK1 and IRAK4 inhibitors, PBMC's were stimulated with TLR7 specific ligand (2 uM) overnight (16-18 hrs) at 37° C. After incubation supernatant was transferred to 384 well PE AlphaPlate-384 (6005350) and IL-6 is quantified using Perkin Elmer IL-6 Alpha LISA kit (A[…]). Plates were read on an Envision® plate reader with Alpha Technology®.

For a further experiment, the target named is T1, IRAK4 (His-TEV-IRAK4) (Homo sapiens, UniProt Q9NWZ3).
T1 construct: His (N); TEV cleavage site (N)
T1 sequence (Q9NWZ3 1-460): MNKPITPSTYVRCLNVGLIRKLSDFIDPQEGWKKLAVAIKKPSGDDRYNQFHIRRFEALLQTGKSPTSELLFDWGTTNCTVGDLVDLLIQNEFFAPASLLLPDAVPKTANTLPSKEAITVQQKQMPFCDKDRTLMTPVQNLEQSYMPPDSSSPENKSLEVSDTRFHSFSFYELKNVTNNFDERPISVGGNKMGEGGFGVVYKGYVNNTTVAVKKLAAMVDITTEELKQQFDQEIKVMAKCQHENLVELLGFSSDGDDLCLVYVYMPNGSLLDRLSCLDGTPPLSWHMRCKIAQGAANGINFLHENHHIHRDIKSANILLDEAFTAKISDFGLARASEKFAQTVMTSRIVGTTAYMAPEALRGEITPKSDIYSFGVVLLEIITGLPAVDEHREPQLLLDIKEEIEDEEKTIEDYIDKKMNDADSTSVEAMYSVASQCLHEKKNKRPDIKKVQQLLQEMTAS
Briefly: IRAK4 enzymatic assay. It counts as biochemical. Particulars: human recombinant His-TEV-IRAK4, ATP 2 μM, STK1-biotin peptide 300 nM, 3 hours at 30° C., FlashPlate. As for the experimental part:
IRAK4 Enzymatic Assay IRAK4 is a human purified recombinant enzyme (His-TEV-[…] (194-712). IRAK4 hydrolyses ATP, autophosphorylates and phosphorylates a Serine/Threonine generic peptidic substrate (STK: 61 ST1BLC from CisBio International based in Bagnols/Cèze FR). Measurement of IRAK-4 inhibition was performed in streptavidin coated 384 well FlashPlate (PerkinElmer #SM[…]). His-TEV-IRAK4 (20 ng/well), ATP (2 μM, [^33P]ATP 0.25 μCi/well), STK1-biotin peptide (300 nM) and compounds in DMSO (range of concentrations from 20 μM to 1 nM) or controls (2% DMSO) were incubated for 3 hours at 30° C. in assay buffer: Hepes pH7.0 50 mM, Fatty acid-free BSA 0.1%, Dithiothreitol DTT 2 mM, MgCl2 10 mM, EGTA 0.5 mM, Tween-20 0.01%, MnCl2 5 mM. Kinase reaction was stopped by addition of EDTA. Supernatant was discarded, plates were washed three times with 150 mM NaCl and radioactivity was then measured in a Microbeta Trilux reader.

Experiment [2] has as its target T2, IRAK1 (His-TEV-IRAK1 (194-712)) (Homo sapiens, UniProt P51617).
T2 construct: His-TEV-IRAK1 (194-712); His (N); TEV cleavage site (N)
Briefly: IRAK1 enzymatic assay. It counts as biochemical. Particulars: human recombinant His-TEV-IRAK1, ATP 1 μM, 3 hours at 30° C., FlashPlate. Here is the method:
IRAK1 Enzymatic Assay IRAK1 is a human purified recombinant enzyme (His-TEV-IRAK1 (194-712)). In this assay, IRAK-1 hydrolyses ATP and autophosphorylates. Measurement of IRAK-1 inhibition was performed in streptavidin coated 384 well FlashPlate (PerkinElmer #SM[…]). His-TEV-IRAK-1 (15 ng/well), ATP (1 μ[…]]ATP 0.25 μCi/well) and compounds in DMSO (range of concentrations from 20 μM to 1 nM) or controls (2% DMSO) were incubated for 3 hours at 30° C. in assay buffer: Hepes pH7.0 50 mM, Fatty acid-free BSA 0.1%, Dithiothreitol DTT 2 mM, MgCl2 10 mM, EGTA 0.5 mM, Triton-X-100 0.01%. Kinase reaction was stopped by addition of EDTA. Supernatant was discarded, plates were washed three times with 150 mM NaCl and radioactivity was then measured in a Microbeta Trilux reader.

Setting [3] is: human PBMC, TLR7 specific ligand 2 uM overnight, IL-6 Alpha LISA.

Read-outs that look alike come from different tables or passages of the source.

T2 sequence (P51617 194-712): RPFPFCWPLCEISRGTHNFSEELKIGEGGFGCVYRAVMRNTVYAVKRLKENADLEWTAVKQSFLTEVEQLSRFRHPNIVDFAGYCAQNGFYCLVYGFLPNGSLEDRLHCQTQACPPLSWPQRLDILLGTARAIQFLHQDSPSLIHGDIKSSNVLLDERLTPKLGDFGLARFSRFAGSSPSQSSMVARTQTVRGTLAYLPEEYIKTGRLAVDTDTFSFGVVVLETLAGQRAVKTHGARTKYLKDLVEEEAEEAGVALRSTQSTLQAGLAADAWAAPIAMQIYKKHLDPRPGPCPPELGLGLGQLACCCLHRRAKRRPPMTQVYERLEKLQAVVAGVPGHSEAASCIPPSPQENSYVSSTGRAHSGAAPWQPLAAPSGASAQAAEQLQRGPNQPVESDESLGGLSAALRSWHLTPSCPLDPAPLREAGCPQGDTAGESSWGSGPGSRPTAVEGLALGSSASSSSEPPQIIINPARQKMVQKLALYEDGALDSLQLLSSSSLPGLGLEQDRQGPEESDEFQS

The IC50 is the point on the concentration scale where inhibition reaches its midpoint. In the case of `Cn1cc(-c2cccc(-c3ncc(-c4cnn(C5CCNCC5CO)c4)cn3)c2)cn1` (mixture of isomers) [Compound 26, [4-(4-{2-[3-(1-Methyl-1H-pyrazol-4-yl)-phenyl]-pyrimidin-5-yl}-pyrazol-1-yl)-piperidin-3-yl]-methanol], the IC50 in experiment [1] (setting [3]) lay in the range of 1000 to 20000 nM; on IRAK4 (His-TEV-IRAK4), 100 to 1000 nM; in experiment [2], 100 to 1000 nM.
On to `Cn1cc(-c2cccc(-c3ncc(-c4cnn(C5CCCC(C(=O)O)C5)c4)cn3)c2)cn1` (mixture of isomers) [Compound 41, Lithium 3-(4-{2-[3-(1-Methyl-1H-pyrazol-4-yl)-phenyl]-pyrimidin-5-yl}-pyrazol-1-yl)-cyclohexanecarboxylate], for which the IC50 fell in the range of 1000 to 20000 nM in experiment [1] (Homo sapiens, PBMC); 100 to 1000 nM on IRAK4 (His-TEV-IRAK4); 1000 to 20000 nM in experiment [2].
Consider `C=CS(=O)(=O)N[C@@H]1CCC[C@H](n2cc(-c3cnc(-c4cccc(-c5cnn(C)c5)c4)nc3)cn2)C1` (racemic) [Compound 33], for which the IC50 in experiment [1] (setting [3]) is 100 to 1000 nM; on IRAK4 (His-TEV-IRAK4), less than 100 nM; in experiment [2], less than 100 nM.
Regarding `Cn1cc(-c2cccc(-c3ncc(-c4cnn([C@H]5CCC[C@H](NCCO)C5)c4)cn3)c2)cn1` (relative stereo) [Compound 2, 2-[Trans-3-(4-{2-[3-(1-Methyl-1H-pyrazol-4-yl)-phenyl]-pyrimidin-5-yl}-pyrazol-1-yl)-cyclohexylamino]-ethanol], the results for the IC50 (in experiment [1] (setting [3]); at IRAK4 (His-TEV-IRAK4); in experiment [2]) were 1000 to 20000 nM, less than 100 nM and 100 to 1000 nM, respectively.
The matching figures for `Cn1cc(-c2cccc(-c3ncc(-c4cnn([C@H]5CCC[C@H](N6CCOCC6=O)C5)c4)cn3)c2)cn1` (relative stereo) [Compound 3, 4-[Trans-3-(4-{2-[3-(1-Methyl-1H-pyrazol-4-yl)-phenyl]-pyrimidin-5-yl}-pyrazol-1-yl)-cyclohexyl]-morpholin-3-one]: 100 to 1000 nM, less than 100 nM and 100 to 1000 nM.
Regarding `Cn1cc(-c2cccc(-c3ncc(-c4cnn([C@H]5CCC[C@@H](N6CCOCC6)C5)c4)cn3)c2)cn1` (relative stereo) [Compound 4, 4-[Cis-3-(4-{2-[3-(1-Methyl-1H-pyrazol-4-yl)-phenyl]-pyrimidin-5-yl}-pyrazol-1-yl)-cyclohexyl]-morpholine], the IC50 was 100 to 1000 nM in experiment [1] (setting [3]), less than 100 nM on IRAK4 (His-TEV-IRAK4) and 100 to 1000 nM in experiment [2].
`Cn1cc(-c2cccc(-c3ncc(-c4cnn([C@H]5CCC[C@H](S(C)(=N)=O)C5)c4)cn3)c2)cn1` (relative stereo) [Compound 35]: the IC50 was 1000 to 20000 nM in experiment [1] (setting [3]), less than 100 nM on IRAK4 (His-TEV-IRAK4) and 100 to 1000 nM in experiment [2].
Turning to `C=CC(=O)N[C@@H]1CCC[C@H](n2cc(-c3cnc(-c4cccc(-c5cnn(C)c5)c4)nc3)cn2)C1` (relative stereo) [Compound 36], the results for the IC50 (in experiment [1] (setting [3]); at IRAK4 (His-TEV-IRAK4); in experiment [2]) were 100 to 1000 nM, less than 100 nM and less than 100 nM, respectively.
For `C=CS(=O)(=O)N[C@H]1CCC[C@H](n2cc(-c3cnc(-c4cccc(-c5cnn(C)c5)c4)nc3)cn2)C1` (relative stereo) [Compound 37, Ethenesulfonic acid [Trans-3-(4-{2-[3-(1-methyl-1H-pyrazol-4-yl)-phenyl]-pyrimidin-5-yl}-pyrazol-1-yl)-cyclohexyl]-amide], the figures for the IC50 (in experiment [1] (setting [3]); on IRAK4 (His-TEV-IRAK4); in experiment [2]) were 100 to 1000 nM, less than 100 nM and less than 100 nM, respectively.
`Cn1cc(-c2cccc(-c3ncc(-c4cnn([C@@H]5CCC[C@@H](NS(C)(=O)=O)C5)c4)cn3)c2)cn1` (single isomer, unassigned) [Compound 27]: the IC50 in experiment [1] (setting [3]) was 100 to 1000 nM; at IRAK4 (His-TEV-IRAK4), less than 100 nM; in experiment [2], 100 to 1000 nM.
For `Cn1cc(-c2cccc(-c3ncc(-c4cnn([C@H]5CCC[C@@H](NS(C)(=O)=O)C5)c4)cn3)c2)cn1` (single isomer, unassigned) [Compound 28], the IC50 is 1000 to 20000 nM in experiment [1] (setting [3]), 100 to 1000 nM on IRAK4 (His-TEV-IRAK4) and 100 to 1000 nM in experiment [2].
Consider `Cn1cc(-c2cccc(-c3ncc(-c4cnn(C5CCCC(NC(=O)OC(C)(C)C)C5)c4)cn3)c2)cn1` (centres unmarked) [Compound 9, [3-(4-{2-[3-(1-Methyl-1H-pyrazol-4-yl)-phenyl]-pyrimidin-5-yl}-pyrazol-1-yl)-cyclohexyl]-carbamic acid tert-butyl ester], for which the IC50 in experiment [1] (setting [3]) was 1000 to 20000 nM; on IRAK4 (His-TEV-IRAK4), less than 100 nM; in experiment [2], less than 100 nM.
For the molecule `C=CC(=O)N1CCC(n2cc(-c3cnc(-c4cccc(-c5cnn(C)c5)c4)nc3)cn2)CC1` [Compound 10, 1-[4-(4-{2-[3-(1-Methyl-1H-pyrazol-4-yl)-phenyl]-pyrimidin-5-yl}-pyrazol-1-yl)-piperidin-1-yl]-propenone], the IC50 in experiment [1] (setting [3]) was 100 to 1000 nM; on IRAK4 (His-TEV-IRAK4), less than 100 nM; in experiment [2] it was 100 to 1000 nM.
In the case of `Cn1cc(-c2cccc(-c3ncc(-c4cnn(C5CCCC(N6CCC(F)(F)CC6)C5)c4)cn3)c2)cn1` (centres unmarked) [Compound 11, 5-{1-[3-(4,4-Difluoro-piperidin-1-yl)-cyclohexyl]-1H-pyrazol-4-yl}-2-[3-(1-methyl-1H-pyrazol-4-yl)-phenyl]-pyrimidine], the values for the IC50 (in experiment [1] (setting [3]); on IRAK4 (His-TEV-IRAK4); in experiment [2]) were 100 to 1000 nM, less than 100 nM and 100 to 1000 nM, respectively.
Turning to `Cn1cc(-c2cccc(-c3ncc(-c4cnn(C5CCC[C@@H](NC6CCOC6)C5)c4)cn3)c2)cn1` (stereo partly drawn) [Compound 12, [3-Cis-(4-{2-[3-(1-Methyl-1H-pyrazol-4-yl)-phenyl]-pyrimidin-5-yl}-pyrazol-1-yl)-cyclohexyl]-(tetrahydro-furan-3-yl)-amine], the IC50 in experiment [1] (setting [3]) was 100 to 1000 nM; at IRAK4 (His-TEV-IRAK4), less than 100 nM; in experiment [2] it was less than 100 nM.
For `C=CC(=O)N1CCCC(n2cc(-c3cnc(-c4cccc(-c5cnn(C)c5)c4)nc3)cn2)C1` (centres unmarked) [Compound 14, 1-[3-(4-{2-[3-(1-Methyl-1H-pyrazol-4-yl)-phenyl]-pyrimidin-5-yl}-pyrazol-1-yl)-piperidin-1-yl]-propenone], the IC50 in experiment [1] (setting [3]) was 100 to 1000 nM; on IRAK4 (His-TEV-IRAK4), less than 100 nM; in experiment [2] it was 100 to 1000 nM.
Turning to `C=CC(=O)NC1CCCC(n2cc(-c3cnc(-c4cccc(-c5cnn(C)c5)c4)nc3)cn2)C1` (centres unmarked) [Compound 15, N-[3-(4-{2-[3-(1-Methyl-1H-pyrazol-4-yl)-phenyl]-pyrimidin-5-yl}-pyrazol-1-yl)-cyclohexyl]-acrylamide], the IC50 (in experiment [1] (setting [3]); at IRAK4 (His-TEV-IRAK4); in experiment [2]) was less than 100 nM throughout.
For `CN(C)C/C=C/C(=O)N1CCC(n2cc(-c3cnc(-c4cccc(-c5cnn(C)c5)c4)nc3)cn2)CC1` [Compound 47, (E)-4-Dimethylamino-1-[4-(4-{2-[3-(1-methyl-1H-pyrazol-4-yl)-phenyl]-pyrimidin-5-yl}-pyrazol-1-yl)-piperidin-1-yl]-but-2-en-1-one], the IC50 (at IRAK4 (His-TEV-IRAK4); in experiment [2]) was 100 to 1000 nM each time.
